Reference: patent US20250108038A1 (priority 2023, published 2025)

Test system: HEK293 uptake transporter overexpressing and control cells
Experiment: Resazurin-based cytotoxicity assay
Description: The cells were plated on 96-well plates. Prior to the experiment the medium was removed, and cells were rinsed with 2×100 μL of the respective buffer for uptake transporter transfected and control cell lines.

[1] = MATE1 assay, 12.50 μM, incubation 30 + 3 min
[2] = MATE1 assay, 50.00 μM, incubation 30 + 3 min
[3] = MATE1 assay, 100.00 μM, incubation 30 + 3 min
[4] = MATE2-K assay, 12.50 μM, incubation 30 + 1 min
[5] = MATE2-K assay, 50.00 μM, incubation 30 + 1 min
[6] = MATE2-K assay, 100.00 μM, incubation 30 + 1 min
[7] = OAT1 assay, 12.50 μM, incubation 30 + 2 min
[8] = OAT1 assay, 50.00 μM, incubation 30 + 2 min
[9] = OAT1 assay, 100.00 μM, incubation 30 + 2 min
[10] = OAT3 assay, 12.50 μM, incubation 30 + 1 min
[11] = OAT3 assay, 50.00 μM, incubation 30 + 1 min
[12] = OAT3 assay, 100.00 μM, incubation 30 + 1 min
[13] = OATP1B1 assay, 12.50 μM, incubation 30 + 3 min
[14] = OATP1B1 assay, 50.00 μM, incubation 30 + 3 min
[15] = OATP1B1 assay, 100.00 μM, incubation 30 + 3 min
[16] = OATP1B3 assay, 12.50 μM, incubation 30 + 2 min
[17] = OATP1B3 assay, 50.00 μM, incubation 30 + 2 min
[18] = OATP1B3 assay, 100.00 μM, incubation 30 + 2 min
[19] = OCT1 assay, 12.50 μM, incubation 30 + 3 min
[20] = OCT1 assay, 50.00 μM, incubation 30 + 3 min
[21] = OCT1 assay, 100.00 μM, incubation 30 + 3 min
[22] = OCT2 assay, 12.50 μM, incubation 30 + 1 min
[23] = OCT2 assay, 50.00 μM, incubation 30 + 1 min
[24] = OCT2 assay, 100.00 μM, incubation 30 + 1 min

Question: Which results are given for `Clc1ccc(C2(OCC3OCCO3)c3ccccc3C3=NCCN32)cc1` (centres unmarked) [Compound I-19]?
Answer: Cell viability (cytotoxic effect) (HEK293-MATE1-LV, -MATE2-K-LV, -OAT1-LV, -OAT3-LV, -OATP1B1-LV, -OATP1B3-LV, -OCT1-LV, -OCT2-LV and control cells): did not reduce the cell viability; Relative cell viability, control cells [1]: 97.67 ± 3.73 % of control; Relative cell viability, transfected cells [1]: 97.90 ± 1.86 % of control; Relative cell viability, control cells [2]: 93.64 ± 2.83 % of control; Relative cell viability, transfected cells [2]: 95.88 ± 2.04 % of control; Relative cell viability, control cells [3]: 85.16 ± 2.74 % of control; Relative cell viability, transfected cells [3]: 97.35 ± 2.64 % of control; Relative cell viability, control cells [4]: 104.66 ± 2.14 % of control; Relative cell viability, transfected cells [4]: 101.07 ± 1.57 % of control; Relative cell viability, control cells [5]: 104.14 ± 1.46 % of control; Relative cell viability, transfected cells [5]: 106.73 ± 1.88 % of control; Relative cell viability, control cells [6]: 84.34 ± 2.47 % of control; Relative cell viability, transfected cells [6]: 101.71 ± 1.17 % of control; Relative cell viability, control cells [7]: 98.64 ± 5.98 % of control; Relative cell viability, transfected cells [7]: 97.97 ± 3.47 % of control; Relative cell viability, control cells [8]: 97.24 ± 5.90 % of control; Relative cell viability, transfected cells [8]: 95.01 ± 3.42 % of control; Relative cell viability, control cells [9]: 90.45 ± 6.49 % of control; Relative cell viability, transfected cells [9]: 88.69 ± 3.44 % of control; Relative cell viability, control cells [10]: 102.06 ± 3.84 % of control; Relative cell viability, transfected cells [10]: 99.42 ± 0.98 % of control; Relative cell viability, control cells [11]: 92.66 ± 3.32 % of control; Relative cell viability, transfected cells [11]: 97.87 ± 1.31 % of control; Relative cell viability, control cells [12]: 83.05 ± 3.00 % of control; Relative cell viability, transfected cells [12]: 97.06 ± 1.13 % of control; Relative cell viability, control cells [13]: 96.78 ± 4.68 % of control; Relative cell viability, transfected cells [13]: 99.91 ± 0.74 % of control; Relative cell viability, control cells [14]: 93.42 ± 4.34 % of control; Relative cell viability, transfected cells [14]: 98.71 ± 0.94 % of control; Relative cell viability, control cells [15]: 89.12 ± 4.63 % of control; Relative cell viability, transfected cells [15]: 94.19 ± 1.27 % of control; Relative cell viability, control cells [16]: 103.94 ± 0.47 % of control; Relative cell viability, transfected cells [16]: 102.23 ± 1.09 % of control; Relative cell viability, control cells [17]: 101.22 ± 1.01 % of control; Relative cell viability, transfected cells [17]: 101.42 ± 1.04 % of control; Relative cell viability, control cells [18]: 95.06 ± 1.40 % of control; Relative cell viability, transfected cells [18]: 97.75 ± 0.86 % of control; Relative cell viability, control cells [19]: 101.25 ± 5.53 % of control; Relative cell viability, transfected cells [19]: 92.84 ± 3.54 % of control; Relative cell viability, control cells [20]: 98.64 ± 5.26 % of control; Relative cell viability, transfected cells [20]: 92.82 ± 3.41 % of control; Relative cell viability, control cells [21]: 92.32 ± 6.47 % of control; Relative cell viability, transfected cells [21]: 86.46 ± 3.25 % of control; Relative cell viability, control cells [22]: 99.87 ± 1.09 % of control; Relative cell viability, transfected cells [22]: 99.66 ± 1.41 % of control; Relative cell viability, control cells [23]: 97.55 ± 0.85 % of control; Relative cell viability, transfected cells [23]: 99.58 ± 1.02 % of control; Relative cell viability, control cells [24]: 87.66 ± 0.85 % of control; Relative cell viability, transfected cells [24]: 96.29 ± 1.73 % of control; decrease of the relative cell viability compared to solvent (DMSO) (all uptake transporter overexpressing and control cells): less than 20%
